From ChEMBL document CHEMBL1157163, “In vitro permeability and metabolic stability of bile pigments and the effects of hydrophilic and lipophilic modification of biliverdin” (Bioorg Med Chem, 2008)

Key:
[1] = Toxicity against rat erythrocytes assessed as hemolysis upto 1000 uM; type: cell-based; settings: erythrocyte
[2] = Apparent permeability across human Caco-2 cells in presence of BSA in basolateral chamber; type: ADME, cell-based
Caco-2 = experiment: Metabolic stability in human Caco-2 cell homogenate; type: ADME, cell-based
[3] = Apparent permeability across human Caco-2 cells; type: ADME, cell-based
[4] = Toxicity against rat erythrocytes assessed as hemolysis upto 1000 uM in presence of BSA; type: cell-based; settings: erythrocyte
[5] = Metabolic stability in presence of BSA; type: ADME
[6] = Toxicity against rat erythrocytes assessed as decrease in hemolysis in presence of BSA; type: cell-based; settings: erythrocyte
[7] = Toxicity against rat erythrocytes assessed as induction of hemolysis at >= 1000 uM; type: cell-based; settings: erythrocyte

Papp [2] [×10⁻⁶ cm/s] | Stability (Caco-2) | Papp [3] [×10⁻⁶ cm/s] | Stability [5] | Compound | Activity [1] | Activity [4] | Activity [6] | Activity [7]
3.52 | Stable | 0.39 | Stable | C=CC1=C(C)/C(=C/c2[nH]c(Cc3[nH]c(/C=C4\NC(=O)C(C)=C4C=C)c(C)c3CCC(=O)NCCS(=O)(=O)O)c(CCC(=O)NCCS(=O)(=O)O)c2C)NC1=O [BILIRUBIN DITAURATE] | Non-toxic | Non-toxic | – | –
1.04 | – | 0.02 | 0.33 %/min | C=CC1=C(C)/C(=C/c2[nH]c(Cc3[nH]c(/C=C4\NC(=O)C(C)=C4C=C)c(C)c3CCC(=O)O)c(CCC(=O)O)c2C)NC1=O [BILIRUBIN] | – | – | Non-toxic | Toxic
– | Stable | – | Stable | C=CC1=C(C)/C(=C/C2=NC(=C\c3[nH]c(/C=C4\NC(=O)C(C)=C4C=C)c(C)c3CCC(=O)N[C@H]3C(O)O[C@H](CO)[C@@H](O)[C@@H]3O)/C(CCC(=O)N[C@@H]3C(O)O[C@@H](CO)[C@H](O)[C@H]3O)=C2C)NC1=O (some centres undefined) [BILIVERDIN DIGLUCOSAMINE] | – | – | – | –
3.7 | Stable | 1.01 | Stable | C=CC1=C(C)/C(=C/C2=NC(=C\c3[nH]c(/C=C4\NC(=O)C(C)=C4C=C)c(C)c3CCC(=O)O)/C(CCC(=O)O)=C2C)NC1=O [BILIVERDIN] | Non-toxic | Non-toxic | – | –
